Assay [1] can be described thus: inhibition of PEG-3 promoter-driven reporter – cell-based, HeLa, luciferase, CREF/GAPDH counter-screen panel, dose response (AID 624167). Conditions: CREF/GAPDH counter-screens; GAPDH; mean of runs. Background: Counterscreens check selectivity or assay interference.
The next assay deals with GAPDH. The description is as above. The settings on record: CREF/GAPDH counter-screens.
In assay [2] the target is PEG-3 (UniProt Q6IN02). The description is as above. Conditions: HeLa PEG-Prom luciferase reporter, overnight, CREF/GAPDH counter-screens, mean of runs.
For assay [3], the system named is PEG-3. The description is as above. Conditions: HeLa PEG-Prom luciferase reporter, overnight, CREF/GAPDH counter-screens. A general note: A reporter such as luciferase makes a cellular process visible.
For a further assay, the system named is Rat fibroblasts (CREF). The assay is described as above. Conditions: CREF/GAPDH counter-screens.
Where [4] appears, read: run 1, dose range 1, individual replicate IC50 per panel.
The mark [5] stands for this setting: run 2, dose range 1, individual replicate IC50 per panel.

As a reminder, the IC50 is the concentration that inhibits the measured activity by half.

Activity calls are given as the source filed them.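 The calls were made as follows: active = mean IC50 for reducing PEG3 promoter reporter signal at or below a set limit, with IC50 above the limit in both counter screens; inactive = the rest, including counter screen hits.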 Where only a bound is given, the exact number is not on record here.

PEG-3 (UniProt Q6IN02), sequence (Q6IN02 whole entry, looked up): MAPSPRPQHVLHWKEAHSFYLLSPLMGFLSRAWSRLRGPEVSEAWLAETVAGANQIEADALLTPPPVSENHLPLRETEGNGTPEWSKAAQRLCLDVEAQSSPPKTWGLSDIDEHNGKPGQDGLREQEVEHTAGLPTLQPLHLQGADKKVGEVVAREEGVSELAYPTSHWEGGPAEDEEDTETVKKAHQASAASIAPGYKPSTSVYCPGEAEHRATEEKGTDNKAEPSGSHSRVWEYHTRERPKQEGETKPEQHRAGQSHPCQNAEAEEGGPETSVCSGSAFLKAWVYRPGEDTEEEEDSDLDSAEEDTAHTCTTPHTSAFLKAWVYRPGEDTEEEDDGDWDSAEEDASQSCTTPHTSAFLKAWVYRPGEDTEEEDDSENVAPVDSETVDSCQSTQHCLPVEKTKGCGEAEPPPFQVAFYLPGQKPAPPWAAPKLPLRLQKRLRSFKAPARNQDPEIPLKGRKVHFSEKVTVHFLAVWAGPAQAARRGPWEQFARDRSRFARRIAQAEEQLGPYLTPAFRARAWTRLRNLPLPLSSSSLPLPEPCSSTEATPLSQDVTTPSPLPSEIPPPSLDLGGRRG

For `Cc1cc(Br)ccc1NC(=O)CNC(=O)Cn1ncc(Cl)c(Cl)c1=O`, the IC50 was 10.9 µM in assay [1]; 10.1 µM in the assay on GAPDH (setting [4]); 11.8 µM in the assay on GAPDH (setting [5]); 6.59 µM at PEG-3 [2]; 8.31 µM in the assay on PEG-3 [3] (setting [4]); 4.87 µM with PEG-3 [3] (setting [5]). In addition, the values for the IC50 in the assay on Rat fibroblasts (CREF) (mean of runs), with Rat fibroblasts (CREF) (setting [4]) and in the assay on Rat fibroblasts (CREF) (setting [5]) were 54.2 µM (inactive), 8.5 µM and more than 100 µM, respectively.

As for `OCCCNc1nccc(-c2cc(Nc3cccc(Cl)c3)ncn2)n1`, the IC50 entry in assay [1] is “inactive”. The half-maximal inhibitory concentration (IC50) is more than 100 µM in the assay with GAPDH (setting [4]); 0.913 µM in the assay on GAPDH (setting [5]); 0.497 µM on PEG-3 [2]; 0.661 µM with PEG-3 [3] (setting [4]); 0.333 µM in the assay on PEG-3 [3] (setting [5]); 59.6 µM (inactive) in the assay with Rat fibroblasts (CREF) (mean of runs). Moreover, the results for the IC50 in the assay with Rat fibroblasts (CREF) (setting [4]) and in the assay on Rat fibroblasts (CREF) (setting [5]) were 19.1 µM and more than 100 µM, respectively.

For the compound `Cc1ccsc1/C=N/Nc1cccc(C(=O)O)c1`, the IC50 in assay [1] is 5.35 µM; with GAPDH (setting [4]), 3.26 µM; in the assay on GAPDH (setting [5]) it was 7.43 µM; on PEG-3 [2], 1.6 µM; in the assay on PEG-3 [3] (setting [4]) it was 1.27 µM; in the assay with PEG-3 [3] (setting [5]) it was 1.92 µM. The IC50 in the assay on Rat fibroblasts (CREF) (mean of runs) is > 100 µM (inactive); in the assay with Rat fibroblasts (CREF) (setting [4]), more than 100 µM; with Rat fibroblasts (CREF) (setting [5]) it was more than 100 µM.

Turning to `O=C(O)c1ccc(CN2C(=O)c3cccc4c([N+](=O)[O-])ccc(c34)C2=O)cc1`, the IC50 in assay [1] was 22.7 µM; in the assay with GAPDH (setting [4]) it was 21.9 µM; in the assay on GAPDH (setting [5]) it was 23.4 µM; at PEG-3 [2] it was 10.1 µM; in the assay with PEG-3 [3] (setting [4]), 12.1 µM; in the assay on PEG-3 [3] (setting [5]), 8.2 µM. The figures for the IC50 in the assay on Rat fibroblasts (CREF) (mean of runs), in the assay with Rat fibroblasts (CREF) (setting [4]) and in the assay with Rat fibroblasts (CREF) (setting [5]) were 31.5 µM, 29.5 µM and 33.4 µM, respectively.

As to `C=Cc1cc(OC)c2c(c1)c(=O)oc1c2cc(OC)c2c(O)ccc(C3OC(C)C(O)C(C)(O)C3O)c21` (centres undefined), in assay [1], the IC50 entry is “inactive”. Moreover, the IC50 is more than 100 µM in the assay with GAPDH (setting [4]); 64.1 µM with GAPDH (setting [5]); 2.56 µM on PEG-3 [2]; 2.17 µM in the assay on PEG-3 [3] (setting [4]); 2.96 µM in the assay with PEG-3 [3] (setting [5]); > 100 µM (inactive) in the assay on Rat fibroblasts (CREF) (mean of runs). The IC50 with Rat fibroblasts (CREF) (setting [4]) and in the assay with Rat fibroblasts (CREF) (setting [5]) was more than 100 µM in each case.

As to `Cc1ccc(/C=C2\SC(=S)N(CCCC(=O)Nc3ccccn3)C2=O)cc1`, the IC50 in assay [1] is 12.8 µM; with GAPDH (setting [4]) it was 17.7 µM; with GAPDH (setting [5]), 7.78 µM; on PEG-3 [2], 1.9 µM; with PEG-3 [3] (setting [4]), 1.33 µM; in the assay on PEG-3 [3] (setting [5]) it was 2.48 µM. Also, the IC50 with Rat fibroblasts (CREF) (mean of runs) was > 100 µM (inactive); with Rat fibroblasts (CREF) (setting [4]) it was more than 100 µM; in the assay with Rat fibroblasts (CREF) (setting [5]), more than 100 µM.

Turning to `CCCCC(=O)NC(c1ccccc1)c1ccc2cccnc2c1O` (centres undefined), the IC50 in assay [1] is > 100 µM (inactive); with GAPDH (setting [4]) it was more than 100 µM; in the assay on GAPDH (setting [5]), more than 100 µM; in the assay with PEG-3 [3] (setting [4]) it was 2.84 µM; in the assay with PEG-3 [3] (setting [5]), more than 100 µM; in the assay with Rat fibroblasts (CREF) (mean of runs), > 100 µM (inactive). Besides, the IC50 with Rat fibroblasts (CREF) (setting [4]) and in the assay with Rat fibroblasts (CREF) (setting [5]) was more than 100 µM in each case. For the same compound, the IC50 result on PEG-3 [2] is “inactive”.

For the compound `CN(C)CC1CCC/C(=C\c2ccc(OC(=O)c3ccc(Cl)cc3)cc2)C1=O` (centres undefined), the IC50 result in assay [1] was “inactive”. The IC50 is 49.8 µM in the assay with GAPDH (setting [4]); 57.7 µM with GAPDH (setting [5]); 5.81 µM at PEG-3 [2]; 6.76 µM in the assay on PEG-3 [3] (setting [4]); 4.86 µM in the assay with PEG-3 [3] (setting [5]); > 100 µM (inactive) in the assay on Rat fibroblasts (CREF) (mean of runs). For the same compound, the IC50 in the assay with Rat fibroblasts (CREF) (setting [4]) and in the assay with Rat fibroblasts (CREF) (setting [5]) was more than 100 µM in each case.

For `O=C(N/N=C\c1c(O)ccc2ccccc12)c1ccc(Cn2cccn2)o1`, the IC50 in assay [1] is > 100 µM (inactive); with GAPDH (setting [4]) it was more than 100 µM; in the assay on GAPDH (setting [5]) it was more than 100 µM; on PEG-3 [2] it was 6.22 µM; with PEG-3 [3] (setting [4]) it was 3.09 µM; in the assay on PEG-3 [3] (setting [5]) it was 9.35 µM. In addition, the values for the IC50 in the assay with Rat fibroblasts (CREF) (mean of runs), in the assay on Rat fibroblasts (CREF) (setting [4]) and in the assay with Rat fibroblasts (CREF) (setting [5]) were > 100 µM (inactive), more than 100 µM and more than 100 µM, respectively.

As for `CS(=O)(=O)c1ccc(-c2sc3ccccc3c2C#CCCO)cc1`, the IC50 was 28.9 µM in assay [1]; 30.2 µM with GAPDH (setting [4]); 27.7 µM in the assay on GAPDH (setting [5]); 7.42 µM on PEG-3 [2]; 14.3 µM with PEG-3 [3] (setting [4]); 0.572 µM in the assay on PEG-3 [3] (setting [5]). The IC50 is 32.3 µM in the assay with Rat fibroblasts (CREF) (mean of runs), 27.7 µM with Rat fibroblasts (CREF) (setting [4]) and 36.9 µM in the assay on Rat fibroblasts (CREF) (setting [5]).

In the case of `CC(C)(C)c1ccc(Oc2ccc(N)cc2)cc1`, the IC50 is 1.44 µM in assay [1]; 0.457 µM in the assay with GAPDH (setting [4]); 2.43 µM with GAPDH (setting [5]); 4.49 µM on PEG-3 [2]; 4.88 µM in the assay on PEG-3 [3] (setting [4]); 4.1 µM with PEG-3 [3] (setting [5]). Also, the IC50 in the assay on Rat fibroblasts (CREF) (mean of runs) was 74.7 µM (inactive); in the assay with Rat fibroblasts (CREF) (setting [4]), 74.7 µM; in the assay on Rat fibroblasts (CREF) (setting [5]), more than 100 µM.

The values are drawn from PubChem BioAssay AID624167 (Sanford-Burnham Center for Chemical Genomics, 2012).
